The values that follow come from publication PMC5218480 (PLoS ONE, 2017).

This test has as its system MV-4-11 cells. The test can be described thus: Gene expression microarray analysis (Affymetrix PrimeView) and GSEA. More on the design: RFU PODN (11730768_x_at) / Fold change /veh PODN (11730768_x_at) / RFU LINC00158 (11744669_a_at) / Fold change /veh LINC00158 (11744669_a_at) / RFU DUSP10 (11751237_a_at) / Fold change /veh DUSP10 (11751237_a_at) / RFU ID3 (11757404_x_at) / Fold change /veh ID3 (11757404_x_at) / RFU PLEKHG5 (11737974_s_at) / Fold change /veh PLEKHG5 (11737974_s_at) / RFU LRRC4B (11730491_at) / Fold change /veh LRRC4B (11730491_at) / RFU GIMAP4 (11747438_a_at) / Fold change /veh GIMAP4 (11747438_a_at) / RFU KRT8 (11758183_x_at) / Fold change /veh KRT8 (11758183_x_at) / RFU CNN1 (11734310_a_at) / Fold change /veh CNN1 (11734310_a_at) / RFU VPS37D (11726825_at) / Fold change /veh VPS37D (11726825_at) / RFU C10orf10 (11716522_x_at) / Fold change /veh C10orf10 (11716522_x_at) / RFU KIR2DL2 /// KIR2DL4 /// KIR2DL5A /// KIR2DL5B /// KIR2DS1 /// KIR2DS2 /// KIR2DS3 /// KIR2DS4 /// KIR3DL3 /// KIR3DL3 /// KIR3DS1 (11738374_at) / Fold change /veh KIR2DL2 /// KIR2DL4 /// KIR2DL5A /// KIR2DL5B /// KIR2DS1 /// KIR2DS2 /// KIR2DS3 /// KIR2DS4 /// KIR3DL3 /// KIR3DL3 /// KIR3DS1 (11738374_at) / RFU C1QL1 (11718748_at) / Fold change /veh C1QL1 (11718748_at) / RFU TMPRSS4 (11747572_a_at) / Fold change /veh TMPRSS4 (11747572_a_at) / RFU HAMP (11756126_x_at) / Fold change /veh HAMP (11756126_x_at) / RFU RNFT2 (11725882_a_at) / Fold change /veh RNFT2 (11725882_a_at) / RFU NR4A2 (11747474_a_at) / Fold change /veh NR4A2 (11747474_a_at) / RFU ABCC12 (11746883_a_at) / Fold change /veh ABCC12 (11746883_a_at) / RFU TMEM136 (11760407_x_at) / Fold change /veh TMEM136 (11760407_x_at) / RFU CLDN22 /// WWC2 (11732394_at) / Fold change /veh CLDN22 /// WWC2 (11732394_at) / RFU HLA-DPB1 (11760878_x_at) / Fold change /veh HLA-DPB1 (11760878_x_at) / RFU SPINT1 (11716480_a_at) / Fold change /veh SPINT1 (11716480_a_at) / RFU GAP43 (11754022_s_at) / Fold change /veh GAP43 (11754022_s_at) / RFU A4GNT (11735810_at) / Fold change /veh A4GNT (11735810_at) / RFU PRB3 (11715151_x_at) / Fold change /veh PRB3 (11715151_x_at) / RFU TUBB4B (11761932_at) / Fold change /veh TUBB4B (11761932_at) / RFU CAPN14 (11732068_a_at) / Fold change /veh CAPN14 (11732068_a_at) / RFU TMCC2 (11721928_a_at) / Fold change /veh TMCC2 (11721928_a_at) / RFU IRGQ (11745062_a_at) / Fold change /veh IRGQ (11745062_a_at) / RFU FAM174B (11720279_a_at) / Fold change /veh FAM174B (11720279_a_at) / RFU TMPRSS4 (11748680_a_at) / Fold change /veh TMPRSS4 (11748680_a_at) / RFU FAM212B (11763350_a_at) / Fold change /veh FAM212B (11763350_a_at) / RFU PLEKHG5 (11743358_a_at) / Fold change /veh PLEKHG5 (11743358_a_at) / RFU ZSCAN30 (11745921_a_at) / Fold change /veh ZSCAN30 (11745921_a_at) / RFU CMKLR1 (11741424_a_at) / Fold change /veh CMKLR1 (11741424_a_at) / RFU LOC101060620 /// MAPK8IP1 (11723275_at) / Fold change /veh LOC101060620 /// MAPK8IP1 (11723275_at) / RFU SPTSSB (11747773_x_at) / Fold change /veh SPTSSB (11747773_x_at) / RFU PRSS12 (11739890_at) / Fold change /veh PRSS12 (11739890_at) / RFU BIN1 (11741810_x_at) / Fold change /veh BIN1 (11741810_x_at) / RFU WNT11 (11732464_a_at) / Fold change /veh WNT11 (11732464_a_at) / RFU C10orf10 (11716521_a_at) / Fold change /veh C10orf10 (11716521_a_at) / RFU C5orf56 (11738089_at) / Fold change /veh C5orf56 (11738089_at) / RFU CYB561 (11721691_x_at) / Fold change /veh CYB561 (11721691_x_at) / RFU ANKRD19P (11752326_a_at) / Fold change /veh ANKRD19P (11752326_a_at) / RFU OR2T12 /// OR2T33 /// OR2T8 (11738714_s_at) / Fold change /veh OR2T12 /// OR2T33 /// OR2T8 (11738714_s_at) / RFU VCAN (11748164_a_at) / Fold change /veh VCAN (11748164_a_at) / RFU JSRP1 (11732532_at) / Fold change /veh JSRP1 (11732532_at) / RFU KRTAP10-11 (11738290_x_at) / Fold change /veh KRTAP10-11 (11738290_x_at) / RFU MYO3A (11730013_a_at) / Fold change /veh MYO3A (11730013_a_at) / RFU EBF3 (11725865_a_at) / Fold change /veh EBF3 (11725865_a_at) / RFU CAMK2N1 (11719241_x_at) / Fold change /veh CAMK2N1 (11719241_x_at) / RFU C5orf56 (11738088_a_at) / Fold change /veh C5orf56 (11738088_a_at) / RFU OLFML3 (11715873_a_at) / Fold change /veh OLFML3 (11715873_a_at) / RFU LOC100653217 /// NTM (11731650_a_at) / Fold change /veh LOC100653217 /// NTM (11731650_a_at) / RFU MAPK11 (11762145_a_at) / Fold change /veh MAPK11 (11762145_a_at) / RFU FIZ1 (11724087_x_at) / Fold change /veh FIZ1 (11724087_x_at) / RFU OASL (11726364_x_at) / Fold change /veh OASL (11726364_x_at) / RFU SOX15 (11748057_x_at) / Fold change /veh SOX15 (11748057_x_at) / RFU CD79A (11719716_a_at) / Fold change /veh CD79A (11719716_a_at) / RFU HIST1H1D (11736915_at) / Fold change /veh HIST1H1D (11736915_at) / RFU CASKIN2 (11723855_a_at) / Fold change /veh CASKIN2 (11723855_a_at) / RFU LOC730098 (11760151_x_at) / Fold change /veh LOC730098 (11760151_x_at) / RFU OR4N2 (11742367_at) / Fold change /veh OR4N2 (11742367_at) / RFU PRRT2 (11749266_a_at) / Fold change /veh PRRT2 (11749266_a_at) / RFU SNX32 (11753110_a_at) / Fold change /veh SNX32 (11753110_a_at) / RFU CDHR5 (11726645_a_at) / Fold change /veh CDHR5 (11726645_a_at) / RFU RCAN1 (11760418_a_at) / Fold change /veh RCAN1 (11760418_a_at) / RFU FAM167A (11723789_a_at) / Fold change /veh FAM167A (11723789_a_at) / RFU FAM26E (11764081_at) / Fold change /veh FAM26E (11764081_at) / RFU ISYNA1 (11749810_s_at) / Fold change /veh ISYNA1 (11749810_s_at) / RFU ACY1 (11761880_at) / Fold change /veh ACY1 (11761880_at) / RFU 11764098_at / Fold change /veh 11764098_at / RFU SAMD14 (11745864_x_at) / Fold change /veh SAMD14 (11745864_x_at) / RFU NPB (11741838_a_at) / Fold change /veh NPB (11741838_a_at) / RFU TMPRSS6 (11731388_a_at) / Fold change /veh TMPRSS6 (11731388_a_at) / RFU KRTAP10-2 (11738614_at) / Fold change /veh KRTAP10-2 (11738614_at) / RFU ARHGAP8 /// PRR5-ARHGAP8 (11727945_x_at) / Fold change /veh ARHGAP8 /// PRR5-ARHGAP8 (11727945_x_at) / RFU KRTAP5-7 /// NADSYN1 (11734609_at) / Fold change /veh KRTAP5-7 /// NADSYN1 (11734609_at) / RFU RASL12 (11751679_a_at) / Fold change /veh RASL12 (11751679_a_at) / RFU CDKN2B (11736163_a_at) / Fold change /veh CDKN2B (11736163_a_at) / RFU PRF1 (11729649_at) / Fold change /veh PRF1 (11729649_at) / RFU, ZNF638 /// ZNF638-IT1 / Fold change vs veh, ZNF638 /// ZNF638-IT1 / RFU, PANK3 / Fold change vs veh, PANK3 / RFU, SH3YL1 / Fold change vs veh, SH3YL1 / RFU, ZEB2 / Fold change vs veh, ZEB2 / RFU, NRIP1 / Fold change vs veh, NRIP1 / RFU, PTTG1IP / Fold change vs veh, PTTG1IP / RFU, CAPN2 / Fold change vs veh, CAPN2 / RFU, MED14 / Fold change vs veh, MED14 / RFU, SNORA58 / Fold change vs veh, SNORA58 / RFU, C1orf63 / Fold change vs veh, C1orf63 / RFU, LRRFIP1 / Fold change vs veh, LRRFIP1 / RFU, NDUFAF7 / Fold change vs veh, NDUFAF7 / RFU, SLC12A2 / Fold change vs veh, SLC12A2 / RFU, IBTK / Fold change vs veh, IBTK / RFU, ESF1 / Fold change vs veh, ESF1 / Fold change vs veh, TMEM50B / RFU, TAOK1 / Fold change vs veh, TAOK1 / RFU, ACBD3 / Fold change vs veh, ACBD3 / RFU, TMA16 / Fold change vs veh, TMA16 / RFU, RWDD3 / Fold change vs veh, RWDD3 / RFU, BCAT1 / Fold change vs veh, BCAT1 / RFU, EDEM3 / Fold change vs veh, EDEM3 / RFU, TMEM33 / Fold change vs veh, TMEM33 / RFU, WDR75 / Fold change vs veh, WDR75 / RFU, AHCTF1 / Fold change vs veh, AHCTF1 / RFU, TFRC / Fold change vs veh, TFRC / RFU, ZDHHC17 / Fold change vs veh, ZDHHC17 / RFU, NOM1 / Fold change vs veh, NOM1 / RFU, ARL8B / Fold change vs veh, ARL8B / RFU, ZBTB11 / Fold change vs veh, ZBTB11 / RFU, TAMM41 / Fold change vs veh, TAMM41 / RFU, KIAA1704 /// LOC100996395 / Fold change vs veh, KIAA1704 /// LOC100996395 / RFU, ING1 / Fold change vs veh, ING1 / RFU, TRMT61B / Fold change vs veh, TRMT61B / RFU, FUBP3 / Fold change vs veh, FUBP3 / RFU, TP53 / Fold change vs veh, TP53 / RFU, TNKS2 / Fold change vs veh, TNKS2 / RFU, ZFP14 / Fold change vs veh, ZFP14 / RFU, ACTR2 / Fold change vs veh, ACTR2 / RFU, PPP3R1 / Fold change vs veh, PPP3R1 / RFU, PIK3R1 / Fold change vs veh, PIK3R1 / RFU, HNRNPA1 / Fold change vs veh, HNRNPA1 / RFU, RNF170 / Fold change vs veh, RNF170 / RFU, ZNF28 / Fold change vs veh, ZNF28 / RFU, RNGTT / Fold change vs veh, RNGTT / RFU, OGT / Fold change vs veh, OGT / RFU, BRD1 / Fold change vs veh, BRD1 / RFU, MARS / Fold change vs veh, MARS / RFU, ZNF655 / Fold change vs veh, ZNF655 / RFU, FAHD1 / Fold change vs veh, FAHD1 / RFU, BDP1 / Fold change vs veh, BDP1 / RFU, LRRCC1 / Fold change vs veh, LRRCC1 / RFU, ARID1A / Fold change vs veh, ARID1A / RFU, ZNF146 / Fold change vs veh, ZNF146 / RFU, ZNF330 / Fold change vs veh, ZNF330 / RFU, GPN3 / Fold change vs veh, GPN3 / RFU, C9orf123 / Fold change vs veh, C9orf123 / RFU, N4BP2L2 / Fold change vs veh, N4BP2L2 / RFU, ARFIP1 / Fold change vs veh, ARFIP1 / RFU, FAM179B / Fold change vs veh, FAM179B / RFU, BCL10 / Fold change vs veh, BCL10 / RFU, UHRF1BP1L / Fold change vs veh, UHRF1BP1L / RFU, BET1 / Fold change vs veh, BET1 / RFU, CNOT2 / Fold change vs veh, CNOT2 / RFU, ZNF268 / Fold change vs veh, ZNF268 / Fold change vs veh, ZNF507 / RFU, DGCR2 / Fold change vs veh, DGCR2 / RFU, WDSUB1 / Fold change vs veh, WDSUB1 / Fold change vs veh, HSP90B1 /// MIR3652 / RFU, ADSS / Fold change vs veh, ADSS / RFU, GK / Fold change vs veh, GK / RFU, ZNF148 / Fold change vs veh, ZNF148 / RFU, TAF9 / Fold change vs veh, TAF9 / RFU, SLC1A5 / Fold change vs veh, SLC1A5 / RFU, SLMO2 / Fold change vs veh, SLMO2 / RFU, ABCC4 / Fold change vs veh, ABCC4 / RFU, LOC101060439 /// RAP1B / Fold change vs veh, LOC101060439 /// RAP1B / RFU, RFX7 / Fold change vs veh, RFX7 / RFU, GTPBP10 / Fold change vs veh, GTPBP10 / RFU, CNEP1R1 / Fold change vs veh, CNEP1R1 / RFU, BIVM-ERCC5 /// ERCC5 / Fold change vs veh, BIVM-ERCC5 /// ERCC5 / RFU, ILF3 / Fold change vs veh, ILF3 / RFU 11762660_at / Fold change /veh 11762660_at / RFU VCAN (11757783_s_at) / Fold change /veh VCAN (11757783_s_at) / RFU DDX43 (11728927_at) / Fold change /veh DDX43 (11728927_at) / RFU KRT8 (11758188_x_at) / Fold change /veh KRT8 (11758188_x_at) / RFU NKD1 (11759106_at) / Fold change /veh NKD1 (11759106_at) / RFU SRD5A1 (11742802_a_at) / Fold change /veh SRD5A1 (11742802_a_at) / RFU TPSAB1 /// TPSB2 (11721975_s_at) / Fold change /veh TPSAB1 /// TPSB2 (11721975_s_at) / RFU GSTM3 (11746129_a_at) / Fold change /veh GSTM3 (11746129_a_at) / RFU IL23R (11737362_x_at) / Fold change /veh IL23R (11737362_x_at) / RFU TMEM51 (11727254_a_at) / Fold change /veh TMEM51 (11727254_a_at) / RFU PIWIL2 (11732686_x_at) / Fold change /veh PIWIL2 (11732686_x_at) / RFU ORM1 (11744905_x_at) / Fold change /veh ORM1 (11744905_x_at) / RFU CCDC152 (11743942_at) / Fold change /veh CCDC152 (11743942_at) / RFU ECM1 (11717891_a_at) / Fold change /veh ECM1 (11717891_a_at) / RFU IL23R (11748794_a_at) / Fold change /veh IL23R (11748794_a_at) / RFU TNFAIP8L3 (11732012_x_at) / Fold change /veh TNFAIP8L3 (11732012_x_at) / RFU MBOAT4 (11741988_at) / Fold change /veh MBOAT4 (11741988_at) / RFU 11764193_at / Fold change /veh 11764193_at / RFU TMEM53 (11763286_at) / Fold change /veh TMEM53 (11763286_at) / RFU MAGEB2 (11727129_at) / Fold change /veh MAGEB2 (11727129_at) / RFU TMEM200A (11744735_a_at) / Fold change /veh TMEM200A (11744735_a_at) / RFU CCDC152 (11751479_a_at) / Fold change /veh CCDC152 (11751479_a_at) / RFU FAM211A (11726209_a_at) / Fold change /veh FAM211A (11726209_a_at) / RFU RGS16 (11746705_a_at) / Fold change /veh RGS16 (11746705_a_at) / RFU VCAN (11755009_s_at) / Fold change /veh VCAN (11755009_s_at) / RFU RHOB (11743442_s_at) / Fold change /veh RHOB (11743442_s_at) / RFU RGS16 (11720943_a_at) / Fold change /veh RGS16 (11720943_a_at) / RFU RGS16 (11720944_at) / Fold change /veh RGS16 (11720944_at) / RFU, VPS4B / Fold change vs veh, VPS4B / RFU, CREB1 / Fold change vs veh, CREB1 / RFU, DNAJC13 / Fold change vs veh, DNAJC13 / RFU, GNAQ / Fold change vs veh, GNAQ / RFU, CDK5R1 / Fold change vs veh, CDK5R1 / RFU, ZRANB3 / Fold change vs veh, ZRANB3 / RFU, CUL4A / Fold change vs veh, CUL4A / RFU, CCNY / Fold change vs veh, CCNY / RFU, UFL1 / Fold change vs veh, UFL1 / RFU, COG3 / Fold change vs veh, COG3 / RFU, DIAPH2 / Fold change vs veh, DIAPH2 / RFU, SKA2 / Fold change vs veh, SKA2 / RFU, AFF3 / Fold change vs veh, AFF3 / RFU, LMF1 / Fold change vs veh, LMF1 / RFU, IPO11 / Fold change vs veh, IPO11 / RFU, DFFB / Fold change vs veh, DFFB / RFU, FOXP1 / Fold change vs veh, FOXP1 / RFU, CARD8 / Fold change vs veh, CARD8 / RFU, STRN3 / Fold change vs veh, STRN3 / RFU, ADK / Fold change vs veh, ADK / RFU, RASSF2 / Fold change vs veh, RASSF2 / RFU, WIPF1 / Fold change vs veh, WIPF1 / RFU, LARP1B / Fold change vs veh, LARP1B / RFU, RASA1 / Fold change vs veh, RASA1 / RFU, RB1 / Fold change vs veh, RB1 / RFU, PPFIA1 / Fold change vs veh, PPFIA1 / RFU, MAT2A / Fold change vs veh, MAT2A / RFU, CCT5 / Fold change vs veh, CCT5 / RFU, WDR92 / Fold change vs veh, WDR92 / RFU, CUX1 / Fold change vs veh, CUX1 / RFU, TTC7A / Fold change vs veh, TTC7A / RFU, TMEM135 / Fold change vs veh, TMEM135 / RFU, DEPTOR / Fold change vs veh, DEPTOR / RFU, CPM / Fold change vs veh, CPM / RFU, DNAJB6 / Fold change vs veh, DNAJB6 / RFU, CACNA2D3 / Fold change vs veh, CACNA2D3 / RFU, DTX4 / Fold change vs veh, DTX4 / RFU, TFCP2 / Fold change vs veh, TFCP2 / RFU, GMCL1 /// GMCL1P1 / Fold change vs veh, GMCL1 /// GMCL1P1 / RFU, AEBP2 / Fold change vs veh, AEBP2 / RFU, SNHG1 /// SNORD22 /// SNORD25 /// SNORD26 /// SNORD27 /// SNORD28 /// SNORD29 /// SNORD31 / Fold change vs veh, SNHG1 /// SNORD22 /// SNORD25 /// SNORD26 /// SNORD27 /// SNORD28 /// SNORD29 /// SNORD31 / Fold change (Aza/veh), C12orf56 (ProbeSet 11735607_a_at) / Fold change (ACY-1035/veh), C12orf56 (ProbeSet 11735607_a_at) / Fold change (Aza/veh), FGFR1OP (ProbeSet 11751329_s_at) / Fold change (ACY-1035/veh), FGFR1OP (ProbeSet 11751329_s_at) / Fold change (Aza/veh), VPS36 (ProbeSet 11739960_a_at) / Fold change (ACY-1035/veh), VPS36 (ProbeSet 11739960_a_at) / RFU SYPL1 (11715823_x_at) / Fold change /veh SYPL1 (11715823_x_at) / RFU IGFBP7 (11715501_s_at) / Fold change /veh IGFBP7 (11715501_s_at) / RFU REEP3 (11722064_at) / Fold change /veh REEP3 (11722064_at) / RFU IGLL1 (11728026_x_at) / Fold change /veh IGLL1 (11728026_x_at): dose or concentration left out as unconfirmed. As to conditions: MV-4-11 cells, 48 hours. It is filed as cell-based, human.

`Nc1ccc(-c2cccs2)cc1NC(=O)c1ccc2c(c1)cc(C1CC1)n2CCN1CCOCC1` [ACY-1035]: the “Fold change /veh KRTAP10-2 (11738614_at)” value amounted to 0.99.
